Reference: patent US20230165242A1, “RODENTICIDAL BAIT AND METHOD OF CONTROLLING TARGET HARMFUL RODENTS” (priority 2020, published 2023)

Tests used:
Type in all cases: in vivo, rat
[1] = test system: Sprague-Dawley rats that are homozygotic carriers of the Y139F mutation; experiment: Relative toxicity of cholecalciferol, single gavage dose, Y139F rats; conditions: single gavage dose 30 mg/kg; 20 days
Description: Warfarin-sensitive Sprague-Dawley rats (20 male rats and 20 female rats), male and female rats that are homozygotic carriers of the L120Q mutation, male and female Sprague-Dawley rats that are homozygotic carriers of the Y139F mutation and male and female brown rats (Rattus norvegicus) that are homozygotic carriers of the Y1 39C mutation are acclimatized for 5 days in the presence of a conventional solid feed and water in unlimited amounts. The rats are fed by gavage with a single dose of a gavage solution containing cholecalciferol (Sigma-Aldrich, France) in a solvent consisting of 95% (v/v) of oil and 5% (v/v) of DMSO. The rats are fed with a conventional solid feed and water in unlimited amounts. The amount of cholecalciferol administered is 30 mg of cholecalciferol per kilogram of body weight of the rat fed by gavage. The percentage of rats surviving gavage for 20 days, counting from the first day of gavage, is noted daily. The results given in Table 4 hereunder describe the mortality observed (“SD”, Sprague-Dawley). The amount of cholecalciferol ingested by the rodents during gavage corresponds to consumption by these rodents of a bait assayed at 300 ppm of cholecalciferol.

[2] = test system: warfarin-sensitive male OFA-Sprague-Dawley rats; experiment: Prothrombin level, Quick's time (bromadiolone / cholecalciferol gavage)
Description: Warfarin-sensitive male OFA-Sprague-Dawley rats (Charles River, L′Arbresles, France) are fed by gavage for 3 consecutive days with a gavage solution containing bromadiolone (LIPHATECH, France) and cholecalciferol (Sigma-Aldrich, France) in a solvent consisting of 95% (v/v) of oil and 5% (v/v) of DMSO. During this period of gavage, the rats are fed with a conventional solid feed and water in unlimited amounts. The concentrations of bromadiolone and cholecalciferol in the gavage solution are 0.1 g/kg (100 ppm) and 7.5 g/kg (7500 ppm) respectively. Each rat receives daily a volume of gavage solution calculated to correspond to 1 mL of gavage solution per kilogram of body weight. The OFA-Sprague-Dawley rats in two control groups are fed by gavage in the same conditions with gavage solutions containing bromadiolone (alone) at a concentration of 100 ppm or cholecalciferol (alone) at a concentration of 7500 ppm, respectively. 24 hours after the last gavage, a volume of blood is taken from each rat by intracardiac puncture and placed in a specimen tube containing sodium citrate. The animals are euthanized after puncture and the plasma is prepared by centrifugation. Quick's time (or clotting time) is evaluated on the plasma supplemented with sodium citrate, then decalcified and recalcified in the presence of calcium thromboplastin. Quick's time is evaluated by means of an optical device for clotting analysis (Option 2plus, Bio Mèrieux®). The results are presented [FIG. 2]. The average Quick's time measured on the plasma from the rats fed by gavage with bromadiolone (bar “B”) is 12.4 seconds (±1.8), the average Quick's time measured on the plasma from the rats fed by gavage with cholecalciferol (bar “C”) is 12.4 seconds (±0.9) and the average Quick's time measured on the plasma from the rats fed by gavage with the composition comprising bromadiolone and cholecalciferol (bar “D”) is 14.1 seconds (±2.7). The differences in values of Quick's time measured between the three groups of rats are not significant. The rats in the group of rats that received the combination of bromadiolone and cholecalciferol coagulate in the same way as the rats in the group of rats that received the gavage solution containing bromadiolone on the one hand and the rats in the group of rats that received the gavage solution containing cholecalciferol on the other hand. Quick's time for rats treated with a control solution formed from oil (95%, v/v) and DMSO (5%, v/v) is (bar “A”) 12.8 seconds (±2.3). Neither the gavage solution containing bromadiolone in combination with cholecalciferol, nor the gavage solution containing bromadiolone alone, nor the gavage solution containing cholecalciferol induces an increase of Quick's time relative to the control. […]

[3] = test system: Female Sprague-Dawley rats that are homozygotic carriers of the Y139F mutation in the Vkorc1 gene; experiment: Synergy of difethialone and cholecalciferol on warfarin-resistant female Sprague-Dawley Y139F rats; conditions: gavage once a day for 3 days; difethialone 0.125 mg/kg alone, cholecalciferol 7.5 mg/kg alone, or both combined; 22 days of observation
Description: Female Sprague-Dawley rats that are homozygotic carriers of the Y139F mutation in the Vkorc1 gene, aged 10 weeks, are acclimatized for 5 days in the presence of a conventional solid feed and water in unlimited amounts. These female Sprague-Dawley Y139F rats are fed by gavage once a day for 3 consecutive days with a gavage solution containing difethialone (LIPHATECH, France) and cholecalciferol (Sigma-Aldrich, France) in a solvent consisting of 95% (v/v) of oil and 5% (v/v) of DMSO. During this period of gavage, the rats are fed with a conventional solid feed and water in unlimited amounts. The amounts of difethialone and cholecalciferol administered are 0.125 mg per kilogram of body weight of the rat fed by gavage and 7.5 mg per kilogram of body weight of the rat fed by gavage, respectively. The rats in two control groups, each consisting of OFA-Sprague-Dawley […] rats, are fed by gavage in the same conditions with gavage solutions containing, respectively, difethialone alone so as to administer an amount of difethialone corresponding to 0.125 mg per kilogram of body weight of the rat fed by gavage and cholecalciferol alone so as to administer an amount of cholecalciferol corresponding to 7.5 mg per kilogram of body weight of the rat fed by gavage. The percentage of rats surviving gavage is noted daily for 21 days counting from the first day of gavage. […]

C=C1CC[C@H](O)C/C1=C/C=C1\CCC[C@]2(C)[C@@H]([C@H](C)CCCC(C)C)CC[C@@H]12 [cholecalciferol]
Female mortality, % [1]: 0% | Male mortality, % [1]: 30% | anticoagulant effect (increase of Quick's time relative to the control) ([2]; 3 daily gavages, bromadiolone 100 ppm and/or cholecalciferol 7500 ppm solution, 1 mL/kg): not anticoagulants | average Quick's time (clotting time) ([2]; plasma 24 hours after last of 3 daily gavages, 1 mL/kg of solution with bromadiolone 100 ppm and/or cholecalciferol 7500 ppm): 12.4 s | percentage of rats surviving [3]: 90%
